Values after ≈ are worked out from the molar mass of the structure shown. Like-named read-outs stand apart in the source and are kept apart here.

Test [1] concerns Escherichia coli ATCC 25922. Kind of test: MIC by standard broth microdilution (CLSI), Escherichia coli. In kind it is cell-based. The method, then: (§1) The in vitro activity against bacteria was determined by standard broth microdilution according to the Clinical and Laboratory Standards Institute CLSI document (Performance Standards for Antimicrobial Susceptibility Testing) M100Ed29E (2019) and (Methods for Dilution Antimicrobial Susceptibility Test for Bacteria That Grow Aerobically) M07Ed11 (2018). The data were obtained using cation-adjusted Mueller Hinton broth medium (CAMHB), and additionally iron-depleted CAMHB medium (ID-CAMHB) for compounds with iron-chelating activity.

For test [2], the system named is Klebsiella pneumoniae ATCC 43816. Kind of test: MIC by standard broth microdilution (CLSI), Klebsiella pneumoniae. It counts as cell-based. The method, then:
as §1

The test system of test [3] is Acinetobacter baumannii ATCC 15473. The test is described as follows: MIC by standard broth microdilution (CLSI), Acinetobacter baumannii. It counts as cell-based. The method, then: as §1
Test [4] deals with Pseudomonas aeruginosa ATCC 27853. Kind of test: MIC by standard broth microdilution (CLSI), Pseudomonas aeruginosa. In kind it is cell-based. The method, then: as §1
For test [5], the system named is Burkholderia cepacia CF and non-CF isolates, n = 5. The test is described as follows: MIC by standard broth microdilution (CLSI), Burkholderia cepacia isolates. It counts as cell-based. The method, then: as §1
The nature of test [6]: Chromeazurol assay (iron-chelating property). It counts as physicochemical. The following applies: for IC50: absorbance at 630 nm. The method, then:
The iron-chelating property was determined by the chromeazurol assay according to Schwyn B., et al, Universal Chemical Assay for the Detection and Determination of Siderophores, 1987. Analytical Biochemistry 160: 47-56. The assay uses the affinity of chrome azurol S/iron(III)/hexadecyltrimethylamimonium bromide for iron(III). When a strong chelator removes the iron from this dye, its color turns from blue to orange and the absorbance measured at 630 nm is indicative for the chelating properties of a siderophore.

Where [7] appears, read: ATCC25922, EC ATCC 25922, cation-adjusted Mueller Hinton broth (CAMHB), read-out: MIC in CAMHB medium.
Where [8] appears, read: ATCC25922, EC ATCC 25922, iron-depleted CAMHB (value in parentheses), read-out: MIC in ID-CAMHB medium.
Where [9] appears, read: ATCC43816, KP ATCC 43816, cation-adjusted Mueller Hinton broth (CAMHB), read-out: MIC in CAMHB medium.
[10] abbreviates: ATCC43816, KP ATCC 43816, iron-depleted CAMHB (value in parentheses), read-out: MIC in ID-CAMHB medium.
[11] abbreviates: ATCC15473, AB ATCC 15473, cation-adjusted Mueller Hinton broth (CAMHB), read-out: MIC in CAMHB medium.
The mark [12] stands for this setting: ATCC15473, AB ATCC 15473, iron-depleted CAMHB (value in parentheses), read-out: MIC in ID-CAMHB medium.
[13] abbreviates: ATCC27853, PA ATCC 27853, cation-adjusted Mueller Hinton broth (CAMHB), read-out: MIC in CAMHB medium.
The mark [14] stands for this setting: ATCC27853, PA ATCC 27853, iron-depleted CAMHB (value in parentheses), read-out: MIC in ID-CAMHB medium.
[15] abbreviates: read-out: MIC in ID-CAMHB medium.

Take `CC(C)(O/N=C(\C(=O)NC1C(=O)N2C(C(=O)O)=C(C=NOCCNC(=O)c3ccc(O)c(O)c3Cl)CSC12)c1csc(N)n1)C(=O)O` (centres unmarked) [Example 4, 7-[[(2Z)-2-(2-aminothiazol-4-yl)-2-(1-carboxy-1-methyl-ethoxy)imino-acetyl]amino]-3-[2-[(2-chloro-3,4-dihydroxy-benzoyl)amino]ethoxyiminomethyl]-8-oxo-5-thia-1-azabicyclo[4.2.0]oct-2-ene-2-carboxylic acid]: the MIC in test [1] (setting [7]) is 0.25 µg/mL (≈ 0.351 µM); in test [1] (setting [8]), 0.25 µg/mL (≈ 0.351 µM); in test [2] (setting [9]), 0.06 µg/mL (≈ 0.0843 µM); in test [2] (setting [10]), 0.06 µg/mL (≈ 0.0843 µM); in test [3] (setting [11]), 4 µg/mL (≈ 5.62 µM); in test [3] (setting [12]) it was 1 µg/mL (≈ 1.4 µM). Moreover, the MIC in test [4] (setting [13]) is 2 µg/mL (≈ 2.81 µM); in test [4] (setting [14]), 0.5 µg/mL (≈ 0.702 µM); in test [5] (read-out: MIC in CAMHB medium) it was 0.03 to 0.12 µg/mL (≈ 0.0421 to 0.169 µM); in test [5] (setting [15]), 0.03 to 0.06 µg/mL (≈ 0.0421 to 0.0843 µM). This molecule showed an IC50 in test [6] of 4.22 µM. Besides, the “iron-chelating activity compared with cefiderocol” value in test [6] (versus the one measured for cefiderocol (table 1)) is reported as “an order of magnitude stronger”.
For `Cn1c(N)c(NC(=O)NCCN)c[n+]1CC1=C(C(=O)O)N2C(=O)[C@@H](NC(=O)/C(=N\OC(C)(C)C(=O)[O-])c3nsc(N)n3)[C@H]2SC1` [Ceftolozane, reference compound], the MIC was 0.25 µg/mL (≈ 0.375 µM) in test [1] (setting [7]); 0.25 µg/mL (≈ 0.375 µM) in test [2] (setting [9]); 2 µg/mL (≈ 3 µM) in test [3] (setting [11]); 0.5 µg/mL (≈ 0.75 µM) in test [4] (setting [13]); 2 to 8 µg/mL (≈ 3 to 12 µM) in test [5] (read-out: MIC in CAMHB medium). The same molecule came in with an IC50 in test [6] greater than 100 µM.
For the molecule `CC(C)(O/N=C(\C(=O)N[C@@H]1C(=O)N2C(C(=O)O)=C(C=NOCc3cc(=O)c(O)cn3O)CS[C@H]12)c1csc(N)n1)C(=O)O` [Example 1, (6R,7R)-7-[[(2Z)-2-(2-aminothiazol-4-yl)-2-(1-carboxy-1-methyl-ethoxy)imino-acetyl]amino]-3-[(1,5-dihydroxy-4-oxo-2-pyridyl)methoxyiminomethyl]-8-oxo-5-thia-1-azabicyclo[4.2.0]oct-2-ene-2-carboxylic acid], the minimum inhibitory concentration (MIC) is 0.12 µg/mL (≈ 0.188 µM) in test [1] (setting [7]); 0.25 µg/mL (≈ 0.392 µM) in test [1] (setting [8]); no more than 0.03 µg/mL in test [2] (setting [9]); 0.25 µg/mL (≈ 0.392 µM) in test [2] (setting [10]); 2 µg/mL (≈ 3.14 µM) in test [3] (setting [11]); 0.5 µg/mL (≈ 0.784 µM) in test [3] (setting [12]). Besides, the MIC in test [4] (setting [13]) is 1 µg/mL (≈ 1.57 µM); in test [4] (setting [14]), 0.25 µg/mL (≈ 0.392 µM); in test [5] (read-out: MIC in CAMHB medium) it was 0.03 to 0.06 µg/mL (≈ 0.0471 to 0.0941 µM); in test [5] (setting [15]) it was 0.03 to 0.12 µg/mL (≈ 0.0471 to 0.188 µM). In addition, the IC50 in test [6] was 7.18 µM.
As to `CC(C)(O/N=C(\C(=O)NC1C(=O)N2C(C(=O)O)=C(C=NO[C@H]3C[C@H](NC(=O)c4ccc(O)c(O)c4Cl)C3)CSC12)c1csc(N)n1)C(=O)O` (relative stereo) [Example 7, 7-[[(2Z)-2-(2-aminothiazol-4-yl)-2-(1-carboxy-1-methyl-ethoxy)imino-acetyl]amino]-3-[[3-[(2-chloro-3,4-dihydroxy-benzoyl)amino]- trans-cyclobutoxy]iminomethyl]-8-oxo-5-thia-1-azabicyclo[4.2.0]oct-2-ene-2-carboxylic acid], the MIC in test [1] (setting [7]) was found to be 0.5 µg/mL (≈ 0.677 µM); in test [1] (setting [8]), 0.5 µg/mL (≈ 0.677 µM); in test [2] (setting [9]), 0.12 µg/mL (≈ 0.163 µM); in test [2] (setting [10]), 0.5 µg/mL (≈ 0.677 µM); in test [3] (setting [11]), 2 µg/mL (≈ 2.71 µM); in test [3] (setting [12]) it was 1 µg/mL (≈ 1.35 µM). The MIC is 2 µg/mL (≈ 2.71 µM) in test [4] (setting [13]), 1 µg/mL (≈ 1.35 µM) in test [4] (setting [14]), 0.03 to 0.12 µg/mL (≈ 0.0406 to 0.163 µM) in test [5] (read-out: MIC in CAMHB medium) and 0.03 to 0.12 µg/mL (≈ 0.0406 to 0.163 µM) in test [5] (setting [15]). In test [6], this molecule showed an IC50 of 4.66 µM.
Consider `CC(C)(O/N=C(\C(=O)N[C@@H]1C(=O)N2C(C(=O)[O-])=C(C[N+]3(CCNC(=O)c4ccc(O)c(O)c4Cl)CCCC3)CS[C@H]12)c1csc(N)n1)C(=O)O` [Cefiderocol, cefiderocol, reference compound], for which the minimum inhibitory concentration (MIC) in test [1] (setting [7]) was 0.25 µg/mL (≈ 0.332 µM); in test [1] (setting [8]), 0.25 µg/mL (≈ 0.332 µM); in test [2] (setting [9]), 2 µg/mL (≈ 2.66 µM); in test [2] (setting [10]) it was 0.5 µg/mL (≈ 0.665 µM); in test [3] (setting [11]), 0.25 µg/mL (≈ 0.332 µM); in test [3] (setting [12]) it was 0.12 µg/mL (≈ 0.16 µM). Also, the MIC in test [4] (setting [13]) is 1 µg/mL (≈ 1.33 µM); in test [4] (setting [14]), 0.5 µg/mL (≈ 0.665 µM); in test [5] (read-out: MIC in CAMHB medium) it was no more than 0.03 µg/mL; in test [5] (setting [15]), no more than 0.03 µg/mL. Moreover, in test [6], half-maximal inhibition (IC50) was put at 68.9 µM.
With `CC(C)(O/N=C(\C(=O)NC1C(=O)N2C(C(=O)O)=C(C=NOCCNC(=O)c3ccc(O)c(O)c3Cl)CSC12)c1nsc(N)n1)C(=O)O` (centres unmarked) [Example 5, 7-[[(2Z)-2-(5-amino-1,2,4-thiadiazol-3-yl)-2-(1-carboxy-1-methyl-ethoxy)imino-acetyl]amino]-3-[2-[(2-chloro-3,4-dihydroxy-benzoyl)amino]ethoxyiminomethyl]-8-oxo-5-thia-1-azabicyclo[4.2.0]oct-2-ene-2-carboxylic acid], the MIC in test [1] (setting [7]) came to 0.25 µg/mL (≈ 0.351 µM); in test [1] (setting [8]), 0.25 µg/mL (≈ 0.351 µM); in test [2] (setting [9]), 0.5 µg/mL (≈ 0.701 µM); in test [2] (setting [10]), 1 µg/mL (≈ 1.4 µM); in test [3] (setting [11]), 1 µg/mL (≈ 1.4 µM); in test [3] (setting [12]), 0.5 µg/mL (≈ 0.701 µM). Also, the MIC in test [4] (setting [13]) was 2 µg/mL (≈ 2.8 µM); in test [4] (setting [14]) it was 0.5 µg/mL (≈ 0.701 µM); in test [5] (read-out: MIC in CAMHB medium) it was 0.03 to 0.12 µg/mL (≈ 0.0421 to 0.168 µM); in test [5] (setting [15]), 0.03 to 0.12 µg/mL (≈ 0.0421 to 0.168 µM). Inhibition in test [6] was half-maximal at 6.41 µM (IC50).
For the molecule `CC(C)(O/N=C(\C(=O)N[C@@H]1C(=O)N2C(C(=O)[O-])=C(C[n+]3ccccc3)CS[C@H]12)c1csc(N)n1)C(=O)O` [Ceftazidime, reference compound], the minimum inhibitory concentration (MIC) in test [1] (setting [7]) was 0.12 µg/mL (≈ 0.22 µM); in test [2] (setting [9]) it was 0.12 µg/mL (≈ 0.22 µM); in test [3] (setting [11]), 4 µg/mL (≈ 7.32 µM); in test [4] (setting [13]) it was 2 µg/mL (≈ 3.66 µM); in test [5] (BC CF and non-CF isolates, n = 5 (MIC range), CAMHB, read-out: MIC in CAMHB medium) it was 4 to 16 µg/mL (≈ 7.32 to 29.3 µM). In addition, the IC50 in test [6] was greater than 100 µM.

The values above are taken from patent publication US12371441B2, “Siderophore cephalosporin conjugates and uses thereof” (ARIVA MED GMBH, priority 2019, dated 2025).
